Results taken from patent US6676941B2 (Board of Regents, The University of Texas System, priority 1999, dated 2004).

What was measured:
[1] = molecular target: T1, VEGF alone or VEGF associated with sFlk-1 (VEGF:Flk-1) (Homo sapiens, UniProt P15692); experiment: Indirect and capture ELISA for reactivity with VEGF alone or VEGF:Flk-1; format: binding
T1 sequence (P15692 27-191 isoform P15692-4): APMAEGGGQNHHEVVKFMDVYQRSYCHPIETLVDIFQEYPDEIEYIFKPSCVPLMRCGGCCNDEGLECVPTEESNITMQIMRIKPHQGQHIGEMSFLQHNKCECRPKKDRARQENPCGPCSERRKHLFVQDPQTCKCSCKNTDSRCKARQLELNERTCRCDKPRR
Experimental: The Flk-1/SEAP protein was produced and purified as described by Tessler et al. (1994). Basically, the extracellular domain of Flk-1 (sFlk-1) was produced in Spodoptera frugiperda (Sf9) cells and purified by immunoaffinity techniques utilizing a monoclonal anti-Flk-1 antibody (1A8). sF1k-1 was then biotinylated and bound on avidin-coated plates.
The reactivity was determined as described above for the initial screening.
A capture ELISA was also developed. In the capture ELISA, microtiter plates were coated overnight at 4° C. with 100 ng of the indicated antibody. […] Streptavidin conjugated to peroxidase (Kirkegaard & Perry Laboratories, Inc.), diluted 1:2000, was used as a second layer and developed.

[2] = tested on: VEGF-mediated growth of ABAE cells; experiment: Endothelial cell growth assay (MTS), VEGF-mediated growth of ABAE cells; format: cell-based, bovine; settings: Table 5 summary
Experimental: Adult bovine aortic endothelial (ABAE) cells were plated into 96-well tissue culture plates at 1500 cells/well and grown in the presence of 0.5 nM human VEGF with the addition of the various sample and control antibodies. Control wells received media with or without VEGF.
After 4 days of incubation, the cells were quantified by an MTS (3-(4,5-dimethylthiazol-2-yl)-5-(3-carboxylmethoxyphenyl)-2-(4-sulfophenyl)-2H-tetrazolium, inner salt) conversion assay, where MTS conversion to a formazan is proportional to cell number and can be followed by absorbance at 490 nm (Cell Titer 96 AQueous One Solution Cell Proliferation Assay, Promega, Madison, Wis.). The assay was performed according to the manufacturer's instructions.
Cell growth was estimated by subtracting the MTS conversion in cultures to which VEGF was not added. Results were expressed as a percentage of the MTS conversion in control cultures to which only VEGF was added (Buttke et al., 1993).

VEGFR2 (KDR/Flk-1) = experiment: ELISA: VEGF binding to VEGFR2-coated wells in presence of antibody; parameters: species or system mouse
VEGFR2 = experiment: VEGF-induced phosphorylation of VEGFR2 in PAE/KDR cells (immunoprecipitation, western blot); format: cell-based; settings: 15 min stimulation, antibodies at 100 nM (15 μg/ml)
Experimental: PAE/KDR, PAE/FLT, and bEND.3 cells were grown to 80-90% confluency in 100 mm tissue dishes in media containing 5% serun. The cells were then serum starved for 24 hours in media containing 0.1% serum. After pretreatment with […] sodium orthovanadate in PBS for 30 min, the cells were incubated with 5 nM (200 ng/ml) VEGF165, 5 nM (100 ng/ml) bFGF (R&D Systems, Minneapolis, Minn.), or A673 tumor conditioned media in the presence or absence of control or test antibodies for additional 15 min.
The cells were then washed with ice-cold PBS containing 10 mM EDTA, 2 mM sodium fluoride, and 2 mM sodium orthovanadate and lysed in lysis buffer (50 mM Tris, 150 mM NaCl, 1% Nonidet P-40, 0.25% sodium deoxycholate, 0.1% CHAPS, 5 mM EDTA, 1.5 mM MgCl2, 2 mM sodium fluoride, 2 mM sodium orthovanadate, 10% glycerol and protease inhibitors (Complete Protease Inhibitor Cocktail tablets, Boehringer Mannheim)). The lysates were clarified by centrifugation and resulting supernatant used for immunoprecipitation.
The reactions using the chicken anti-FLT-1 antibody were subsequently incubated with a bridging goat anti-chicken antibody (Kirkegaard and Perry Laboratories, Inc.) for 1 h at 4° C. […]

NCI-H358 NSCLC tumors = experiment: Treatment of established NCI-H358 NSCLC xenografts; format: in vivo, nu/nu mice
Experimental: (§1) Male nu/nu mice bearing subcutaneous NCI-H358 tumors or HT1080 fibrosarcoma 200-400 mm^3 in size were injected i.p. with test or control antibodies. The NCI-H358 bearing mice were treated with 100 μg of antibodies per injection three times a week during the first week and twice a week during the second and third week. The mice were then switched to 50 μg per injection every five days. The HT1080 bearing mice were treated with 100 μg of the indicated antibody or saline every other day throughout the duration of the study. In both studies, mice were sacrificed when their tumors reached 2500 mm^3 in size or earlier if tumors began to ulcerate.
Doses were 50-100 μg every 3-5 days. […] In addition to measuring mean tumor volume (FIG. 4), photographs of the mice from each treatment group were also taken to show the differences in tumor size and appearance at the end of the study.

HT1080 fibrosarcoma = experiment: Treatment of established HT1080 fibrosarcoma xenografts; format: in vivo, nu/nu mice; settings: 100 μg i.p. every other day; tumors 200-250 mm^3 at start
Experimental: as §1

[3] = tested on: A673 rhabdomyosarcoma and LS174T colon adenocarcinoma tumors; experiment: Treatment of mice with established A673 and LS174T tumors; settings: mouse, in vivo
KDR = experiment: 125I-VEGF binding to KDR expressing endothelial cells (ABAE cells); parameters: species or system bovine
[4] = molecular target: T2, denatured VEGF121 and VEGF165 (Homo sapiens, UniProt P15692); experiment: Western blot of VEGF under reducing and non-reducing conditions; format: binding
T2 sequence (P15692 27-191 isoform P15692-4): T1 sequence (P15692 27-191 isoform P15692-4)
Experimental: The nitrocellulose membrane was blocked using Sea-Block PP82-41 (East Coast Biologics, Berwick, Me.), and probed with primary antibodies using a mini-blotter apparatus (Immunetics, Cambridge, Mass.). The membranes were developed after incubation with the appropriate peroxidase-conjugated secondary antibody by ECL enhanced chemiluminescence.
Western blot analyses of anti-VEGF antibodies were conducted by separating VEGF165 in the presence of 5% FCS using SDS-PAGE on a 12% gel and analyzing by a standard western blotting protocol using ECL detection. The primary antibodies were incubated with the nitrocellulose membrane using a multi-lane mini-blotter apparatus.

VEGFR1 (FLT-1) = experiment: ELISA: VEGF binding to VEGFR1-coated wells in presence of antibody
Experimental: The extracellular domain of VEGFR1 (Flt-1/Fc, R&D Systems, Minneapolis) or VEGFR2 (sFlk-1-biotin) was coated directly on wells of a microtiter plate or captured by NeutrAvidin (Pierce, Rockford, Ill.) coated wells, respectively. VEGF at a concentration of 1 nM (40 ng/ml) was incubated in the wells in the presence or absence of 100-1000 nM (15 μg-150 μg/ml) of control or test antibodies. The wells were then incubated with 1 μg/ml of rabbit anti-VEGF antibody (A-20, Santa Cruz Biotechnology, Santa Cruz, Calif.).
The reactions were developed by the addition of peroxidase-labeled goat anti-rabbit antibody (Dako, Carpinteria, Calif.) and visualized by addition of 3,3′5,5′-tetramethylbenzidine (TMB) substrate (Kirkegaard and Perry Laboratories, Inc.). Reactions were stopped after 15 min with 1 M H3PO4 and read spectrophotometrically at 450 nM.

[5] = tested on: NCI-H358 human NSCLC and HT29 human colonic adenocarcinoma xenografts; experiment: In vivo localization in mice bearing human tumor xenografts (immunohistochemistry of tumor and organs)
Experimental: Tumors were grown subcutaneously in immunocompromised mice (NCI-H358 NSCLC in nu/nu mice and HT29 colon adenocarcinoma in SCID mice) until the tumor volume was approximately 1 cm^3. 100 μg of unlabeled antibody for studies using SCID mice, or 100 μg of biotinylated antibody for studies using nude mice, was injected intravenously via a tail vein. Twenty four hours later, the mice were anesthetized, perfused with PBS, and tumor and organs including heart, lungs, liver, kidneys, intestines and spleen were collected and snap frozen in liquid nitrogen.
The tumor and organs from each mouse were sectioned on a cryostat and stained for antibody immunohistochemically as above, with the exception that sections from the nude mice were developed using peroxidase labeled streptavidin-biotin complex (Dako, Carpinteria, Calif.) and the sections from the SCID mice were developed using two peroxidase-conjugated secondary antibodies, a goat anti-mouse IgG+IgM followed by a rabbit anti-goat IgG.
100 μg of GV39M and 3E7 or isotype-matched control IgG were injected into SCID mice bearing HT29 human colonic adenocarcinomas. Twenty-four hours later, the mice were sacrificed, exsanguinated and the tumors and tissues were removed.

[6] = tested on: cancer patients having progressive disease; settings: clinical trials; cited from earlier work
[7] = Blood clearance of radioiodinated 2C3-GUS after intravenous injection; format: in vivo; settings: 125I-labelled, intravenous injection into mice
Text: 2C3-GUS was radioiodinated with ^125I to a specific activity of 5×10^6 cpm/μg.

[8] = Enzymatic activity of the GUS portion of 2C3-GUS; format: biochemical
Text: The 6-His GUS was pure based upon SDS-PAGE, where it ran as a single band of 75 kDa band. On gel filtration columns, the 6-His GUS runs as a tetramer of about 300 kDa.
The biological activity of each component of the 2C3-GUS conjugate was confirmed.

VEGFR2 (KDR/Fc) = experiment: Co-precipitation assay, VEGF binding to VEGFR2/Fc in solution; settings: 40 ng VEGF, 200 ng receptor/Fc; 2C3 F(ab′)2 20 μg, A4.6.1 F(ab′)2 10 and 1 μg
Experimental: (§2) 200 ng of soluble forms of VEGFR1 (Flt-1/Fc) or VEGFR2 (KDR/Fc, R&D Systems, Minneapolis, Minn.) were added for a total volume of 50 μl and incubated for 2 hrs. The receptor/Fc constructs were precipitated using Protein A-sepharose beads and the resulting precipitate was washed 4 times with binding buffer.
(§3) Reducing sample buffer was added to the pellet and supernatant of each reaction and both were analyzed by 12% SDS-PAGE and transferred to PVDF membranes. […] The soluble receptor/Fc constructs were also detected by using peroxidase-conjugated goat anti-human Fc (Kirkegaard & Perry Laboratories, Inc.)
(§4) The receptor/Fc constructs were precipitated by incubation with Protein A sepharose beads. The precipitate was washed and resuspended in reducing sample buffer and separated by 12% SDS-PAGE and transferred to PVDF.

VEGFR1 (Flt-1/Fc) = experiment: Co-precipitation assay, VEGF binding to VEGFR1/Fc in solution; settings: 40 ng VEGF, 200 ng receptor/Fc; 2C3 F(ab′)2 20 μg, A4.6.1 F(ab′)2 10 and 1 μg
Experimental: as §2, §3, §4

[9] = 100 fold molar excess over VEGF

2C3: anti-VEGF monoclonal antibody, IgG2a,k, raised to recombinant human VEGF; hybridoma ATCC PTA 1595; blocks VEGF binding to VEGFR2, not VEGFR1
Predominant Reactivity [1]: VEGF
Blocks VEGF-induced proliferation [2]: Yes
Reduction in VEGF binding to VEGFR2 (VEGFR2 (KDR/Flk-1); [9]): about 74%
Amount VEGF bound to VEGFR2-coated wells, % of amount bound in the absence of antibody (VEGFR2 (KDR/Flk-1); 1000-fold molar excess of antibody over VEGF (1 nM VEGF)): ~19%
Reduction in VEGF binding to VEGFR2 (VEGFR2 (KDR/Flk-1); 1000 fold molar excess over VEGF): about 81%
Blocks VEGF from binding to VEGFR2 (VEGFR2 (KDR/Flk-1); Table 5 summary): Yes
Blocking of VEGF-induced phosphorylation of VEGFR2 (VEGFR2): block VEGF-induced phosphorylation of VEGFR2
Mean tumor weight at the end of the study (day 116) (NCI-H358 NSCLC tumors; FIG. 5A, 100 μg i.p., initial treatment 500 μg i.v.): 0.054 g
Mean tumor volume after approximately 14 wk of treatment (NCI-H358 NSCLC tumors; FIG. 5A, 100 μg i.p., start 480 mm^3 (2C3), 428 mm^3 (3E7)): 84 mm^3
Decrease in mean tumor volume (NCI-H358 NSCLC tumors; FIG. 5A, after approximately 14 wk): approximately 80%
Mean tumor volume at the end of the study, % of the initial mean tumor volume (NCI-H358 NSCLC tumors; tumors 300-450 mm^3 at start, 50-100 μg i.p. every 3-5 days, approximately 10 weeks): 30%
Effect on growth of HT1080 tumors (HT1080 fibrosarcoma): arrested the growth of the tumors
Effect on growth of established A673 and LS174T tumors [3]: significantly slowed the growth
Blocking of 125I-VEGF binding to KDR on ABAE cells (KDR): blocks VEGF from binding to KDR in a concentration dependent manner
Reactivity with VEGF on western blot [4]: react with denatured VEGF121 and VEGF165
Amount VEGF that bound to ELISA wells, maintained (VEGFR1 (FLT-1); [9]): about 92%
Blocks VEGF from binding to VEGFR1 (VEGFR1 (FLT-1); Table 5 summary): No
Tumor localization in the HT29 human tumor model ([5]; after i.v. injection): localized strongly to the connective tissue
Immunohistochemical Reactivity, Tumor ([5]; as E17, 3E7 and GV39M bound tumor vascular endothelium, 2C3 bound tumor stroma): 3+

NC(=O)c1nnn(Cc2cc(Cl)c(C(=O)c3ccc(Cl)cc3)c(Cl)c2)c1N [CAI, carboxyamidotriazole]
Disease stabilization, share of cancer patients having progressive disease before treatment [6]: 49%

2C3-GUS
t½ α [7]: about 6 hours
t½ β [7]: about 25 hours
Enzymatic activity of GUS portion [8]: retained enzymatic activity

2C3 F(ab′)2: F(ab′)2 fragment of 2C3
Blocking of VEGF binding to VEGFR2/Fc in solution (VEGFR2 (KDR/Fc)): blocked the binding of VEGF to VEGFR2/Fc
Blocking of VEGF binding to VEGFR1/Fc in solution (VEGFR1 (Flt-1/Fc)): not to VEGFR1/Fc
